Results taken from ChEMBL document CHEMBL6134837, “Synergistic Cancer Therapy: An NIR-Activated Methylene Blue-Nitrogen Mustard Prodrug for Combined Chemotherapy and Photodynamic Therapy” (J Med Chem, 2025).
Activity calls are given as the source filed them. The calls are words filed in the database; no cut-off is given here.

How the values were obtained:
[1] = test system: B16-F10; test: Induction of DNA damage in mouse B16-F10 cells assessed as green fluorescence in nuclei at 10 uM measured after irradiation with […] light by gamma-H2AX based assay; type: functional, cell-based
[2] = Photoactivation of the compound assessed as release of methylene blue at 10 uM measured after 21 mins under 660 nm laser irradiation; conditions: 0.35 h
[3] = Photoactivation of the compound assessed as release of methylene blue by measuring photolysis half-life at 10 uM under 660 nm laser irradiation
[4] = Photoactivation of the compound assessed as fluorescence changes at 10 uM measured after 21 mins under 660 nm laser irradiation relative to under dark condition; conditions: 0.35 h
[5] = Stability of the compound measured after 7 days under dark condition; type: physicochemical; conditions: 168 h; time 7 day
[6] = Induction of ROS generation in DCFH solution assessed as increase in fluorescent intensity measured under laser irradiation 660 nm for continuous 9 secs; type: functional; conditions: time 9.0 sec
[7] = Induction of ROS generation in DCFH solution assessed as increase in fluorescent intensity using 525 nm pre-irradiated compound; type: functional
[8] = Induction of ROS generation in DCFH solution assessed as fold increase in fluorescent intensity using 525 nm pre-irradiated compound relative to non-illuminated condition; type: functional
[9] = Induction of ROS generation assessed as increase in singlet oxygen production using pre-irradiated compound by measuring reduction in ABDA absorption at 378 nm measured for 90 secs; type: functional; design: scale not given: the % may be the effect or the level left; conditions: time 90.0 sec
[10] = Induction of ROS generation assessed as increase in singlet oxygen production by measuring reduction in ABDA absorption; type: functional
[11] = Induction of ROS generation assessed as superoxide anion production by measuring fold increase in fluorescent intensity of DHR123 using 526 nm pre-irradiated compound relative to non-illuminated condition; type: functional
[12] = Induction of ROS generation assessed as superoxide anion production by measuring increase in fluorescent intensity of DHR123 using 526 nm (using non pre-irradiated condition); type: functional
[13] = Induction of hydroxyl radicals generation before irradiation by coumarin-3-carboxylic acid (3-CCA) assay; type: functional
[14] = Induction of hydroxyl radicals generation after irradiation by coumarin-3-carboxylic acid (3-CCA) assay; type: functional
[15] = test system: B16-F10; test: Cytotoxicity against mouse B16-F10 cells assessed as cell viability at 1 to 10 uM measured after 48 hrs incubation under dark by MTT assay; type: toxicity, cell-based; conditions: b16-f10, 48 h, dose 1-10 µM
[16] = test system: B16-F10; test: Cytotoxicity against mouse B16-F10 cells assessed as cell viability measured irradiated with 100 mW/cm^2, 660 nm light for 15 mins and measured after 48 hrs incubation by MTT assay; type: functional, cell-based; conditions: B16-F10, light or radiation study
[17] = test system: B16-F10; test: Cytotoxicity against mouse B16-F10 cells assessed as cell death rate measured at 2 uM irradiated with 100 mW/cm^2, 660 nm light for 15 mins and measured after 48 hrs of incubation by MTT assay relative to control; type: functional
[18] = test system: B16-F10; test: Cytotoxicity against mouse B16-F10 cells assessed as cell viability measured at 10 uM after cells irradiated with 100 mW/cm^2, 660 nm light irradiation for 15 mins followed by measured after 48 hrs incubation by MTT assay relative to control; type: functional; conditions: B16-F10, light or radiation study, read-out: Activity
[19] = test system: B16-F10; test: Cytotoxicity against mouse B16-F10 cells assessed as increase in dead cells by measuring red fluorescence at 10 uM measured after cells irradiated with 100 mW/cm^2, 660 nm light irradiation for 15 mins by Calcein-AM/PI staining based photodynamic therapy (PDT) assay; type: functional, cell-based
[20] = test system: B16-F10; test: Cytotoxicity against mouse B16-F10 cells assessed as cell viability at 10 uM measured absence of irradiation by Calcein-AM/PI staining based assay; type: toxicity; conditions: b16-f10, 10 µM
[21] = test system: B16-F10; test: Cytotoxicity against mouse B16-F10 cells assessed as increase in dead cells by measuring red fluorescence at 10 uM measured after cells irradiated with 100 mW/cm^2, 660 nm light irradiation for 3 to 15 mins by Calcein-AM/PI staining based photodynamic therapy (PDT) assay; type: functional, cell-based; conditions: time 3-15 min
[22] = test system: B16-F10; test: Cytotoxicity against mouse B16-F10 cells assessed as decrease in green fluorescence at 1 to 10 uM measured after cells irradiated with 100 mW/cm^2, 660 nm light irradiation for 15 mins by Calcein-AM/PI staining based photodynamic therapy (PDT) assay; type: functional, cell-based; conditions: dose 1-10 µM
[23] = test system: B16-F10; test: Induction of ROS generation in mouse B16-F10 cells assessed as fluorescence intensity at 10 uM measured co-incubated with DCFH-DA followed by irradiated for 3 to 15 mins; type: functional, cell-based; conditions: time 3-15 min
[24] = test system: B16-F10; test: Induction of ROS generation in mouse B16-F10 cells assessed as increase in intracellular superoxide anion by measuring red fluorescence in nucleus at 10 uM measured co-incubated with dihydroethidium (DHE) followed by irradiated for 3 to 15 mins; type: functional, cell-based; conditions: time 3-15 min
[25] = test system: B16-F10; test: Induction of ROS generation in mouse B16-F10 cells assessed as increase in intracellular singlet oxygen by measuring […] fluorescence in nucleus at 10 uM measured co-incubated with SOSG followed by irradiated for 3 to 15 mins; type: functional, cell-based; conditions: time 3-15 min
[26] = test system: B16-F10; test: Induction of DNA damage in mouse B16-F10 cells assessed as green fluorescence in nuclei measured in absence light at 10 uM by gamma-H2AX based assay; type: functional, cell-based
[27] = test system: B16-F10; test: Induction of DNA damage in mouse B16-F10 cells assessed as condensed chromatin measured after irradiation with […] light at 10 uM by Hoechst 33342 staining based assay; type: functional, cell-based
[28] = test system: B16-F10; test: In vivo antitumor activity against mouse B16-F10 cells transplanted in BALB/c mouse model assessed as tumor growth inhibition at 200 uM administered via intratumoural injection followed by irradiated with 660 nm laser irradiation measured on day 1; type: functional, organism-based; conditions: route it(Intratumoral), time 1.0 day
[29] = test system: B16-F10; test: Induction of apoptosis in mouse B16-F10 cells assessed as viable cells at 10 uM measured after 8 hrs by annexin VFITC (AV)/propidium iodide (PI) based flow cytometry (reference value: 92.2%); type: functional; conditions: read-out: Activity
[30] = test system: B16-F10; test: Induction of apoptosis in mouse B16-F10 cells assessed as early apoptotic cells at 10 uM measured after 8 hrs by annexin VFITC (AV)/propidium iodide (PI) based flow cytometry (reference value: 1.02%); type: functional
[31] = test system: B16-F10; test: Induction of apoptosis in mouse B16-F10 cells assessed as late apoptotic cells at 10 uM measured after 8 hrs by annexin VFITC (AV)/propidium iodide (PI) based flow cytometry (reference value: 5.20%); type: functional
[32] = test system: B16-F10; test: Induction of apoptosis in mouse B16-F10 cells assessed as necrotic cells at 10 uM measured after 8 hrs by annexin VFITC (AV)/propidium iodide (PI) based flow cytometry (reference value: 1.61%); type: functional
[33] = test system: B16-F10; test: Induction of apoptosis in mouse B16-F10 cells assessed as viable cells at 10 uM measured after 8 hrs followed by irradiated (100 mW/cm^2) for 15 mins by annexin VFITC (AV)/propidium iodide (PI) based flow cytometry (reference value: 92.2%); type: functional; conditions: B16-F10, light or radiation study, read-out: Activity
[34] = test system: B16-F10; test: Induction of apoptosis in mouse B16-F10 cells assessed as early apoptotic cells at 10 uM measured after 8 hrs followed by irradiated (100 mW/cm^2) for 15 mins by annexin VFITC (AV)/propidium iodide (PI) based flow cytometry (reference value: 1.02%); type: functional
[35] = test system: B16-F10; test: Induction of apoptosis in mouse B16-F10 cells assessed as late apoptotic cells at 10 uM measured after 8 hrs followed by irradiated (100 mW/cm^2) for 15 mins by annexin VFITC (AV)/propidium iodide (PI) based flow cytometry (reference value: 5.20%); type: functional
[36] = test system: B16-F10; test: Induction of apoptosis in mouse B16-F10 cells assessed as necrotic cells at 10 uM measured after 8 hrs followed by irradiated (100 mW/cm^2) for 15 mins by annexin VFITC (AV)/propidium iodide (PI) based flow cytometry (reference value: 1.61%); type: functional
[37] = Toxicity in BALB/c mouse transplanted with mouse B16-F10 cells assessed as body weight change measured at 200 uM administered via intratumoural injection measured after 7 days; conditions: in vivo, other, 168 h, route it(Intratumoral), time 7 day
[38] = Drug uptake in BALB/c mouse transplanted with mouse B16-F10 cells assessed as increase in fluorescence intensity at tumor site at 200 uM administered via intratumoural injection followed by irradiated with 660 nm laser measured for 3 to 21 mins by imaging assay; type: ADME; conditions: in vivo, other, time 3-21 min, route it(Intratumoral)
[39] = test system: B16-F10; test: In vivo antitumor activity against mouse B16-F10 cells transplanted in BALB/c mouse model assessed as tumor growth inhibition at 200 uM administered via intratumoural injection followed by irradiated with 660 nm laser irradiation measured for 7 days; type: functional, organism-based; conditions: route it(Intratumoral), time 7.0 day
[40] = test system: B16-F10; test: In vivo antitumor activity against mouse B16-F10 cells transplanted in BALB/c mouse model assessed as inhibition of tumor cells in tumor slice at 200 uM administered via intratumoural injection followed by irradiated with 660 nm laser irradiation measured for 7 days by H and E staining based analysis; type: functional, organism-based; conditions: route it(Intratumoral), time 7.0 day
[41] = Hemolysis in healthy mouse RBC assessed as hemolysis rate at 1 to 256 uM measured after 2 hrs incubation by microplate reader; type: toxicity, cell-based, Erythrocyte; conditions: mouse red blood cells, dose 1-256 µM, read-out: Activity
[42] = Toxicity in BALB/c mouse transplanted with mouse B16-F10 cells assessed as heart damage measured at 200 uM administered via intratumoural injection measured after 7 days by H and E staining based analysis; type: tissue-based; conditions: in vivo, other, 168 h, route it(Intratumoral), time 7 day
[43] = Toxicity in BALB/c mouse transplanted with mouse B16-F10 cells assessed as liver damage measured at 200 uM administered via intratumoural injection measured after 7 days by H and E staining based analysis; type: tissue-based; conditions: in vivo, other, 168 h, route it(Intratumoral), time 7 day
[44] = Toxicity in BALB/c mouse transplanted with mouse B16-F10 cells assessed as spleen damage measured at 200 uM administered via intratumoural injection measured after 7 days by H and E staining based analysis; type: tissue-based; conditions: in vivo, other, 168 h, route it(Intratumoral), time 7 day
[45] = Toxicity in BALB/c mouse transplanted with mouse B16-F10 cells assessed as lung damage measured at 200 uM administered via intratumoural injection measured after 7 days by H and E staining based analysis; type: tissue-based; conditions: in vivo, other, 168 h, route it(Intratumoral), time 7 day
[46] = Toxicity in BALB/c mouse transplanted with mouse B16-F10 cells assessed as kidney damage measured at 200 uM administered via intratumoural injection measured after 7 days by H and E staining based analysis; type: tissue-based; conditions: in vivo, other, 168 h, route it(Intratumoral), time 7 day

CN(C)c1ccc2nc3ccc(=[N+](C)C)cc-3sc2c1
Activity [1]: Active

CN(C)c1ccc2c(c1)Sc1cc(N(C)C)ccc1N2C(=O)Nc1ccc(N(CCCl)CCCl)cc1
Activity [2]: 100% | t1/2 [3]: 11 min | fold change (FC) [4]: 7 | Stability [5]: Stable | Activity [6]: inactive | Activity [7]: Active | fold change (FC) [8]: 69 | Activity [9]: 97% | Activity [10]: inactive | fold change (FC) [11]: 113 | Activity [12]: inactive | Activity [13]: inactive | Activity [14]: inactive | Activity [15]: Non-toxic | IC50 [16]: 1.35 µM | Activity [17]: 62.2% | viability at 10 µM [18]: 9.4% | Activity [19]: Active; Almost Exclusively Exhibiting Red Fluorescence Signal | Activity [20]: Non-toxic | Activity [21]: Active | Activity [22]: Active | Activity [23]: Active; Fluorescence Intensity Of Dcfh Within Cells Exhibited A Positive Correlation With The Duration Of Light Exposure | Activity [24]: Active | Activity [25]: Active | Activity [1]: Active; Effect Is Higher Compared With Nm And Mb Group | Activity [26]: Not active; Compound Showed Only Minimal Green Fluorescence | Activity [27]: Active | Activity [28]: Active; Compound Exhibit Strong Activity Relative To Mb+Light Group | viability at 10 µM [29]: 89.2% | Activity [30]: 6.85% | Activity [31]: 3.27% | Activity [32]: 0.65% | viability at 10 µM [33]: 23.8% | Activity [34]: 44.8% | Activity [35]: 30.9% | Activity [36]: 0.45% | Activity [37]: Non-toxic | Drug uptake [38]: Active | Activity [39]: Active | Activity [40]: Active; Compared With Nm And Mb + Irradiation Group Â?? Compound Showed More Pronounced Effect | hemolysis at 2 h, up to 256 µM [41]: < 5% | Activity [42]: Non-toxic | Activity [43]: Non-toxic | Activity [44]: Non-toxic | Activity [45]: Non-toxic | Activity [46]: Non-toxic

CN(C)c1ccc2nc3ccc(N(C)C)cc3[s+]c2c1.[Cl-] [METHYLENE BLUE ANHYDROUS]
viability at 10 µM [18]: 22.5% | viability at 10 µM [33]: 33.1% | Activity [34]: 54.8% | Activity [35]: 11.3% | Activity [36]: 0.83%
